Patent US11098040B2, “Compounds and methods of use” (Ferro Therapeutics, Inc., priority 2018, dated 2021)
pIC50: −log10 of the molar value.

What was measured:
KP4 = assay: Cell viability assay (CellTiter Glo), pancreatic ductal adenocarcinoma KP4; assay type: cell-based, human; details: Homo sapiens, KP-4, 96 h, pancreatic cancer cell line KP4, 96 hours, CellTiter Glo; read-out: IC50 μM KP4
Summary of the method: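 Luminescent ATP readout (CellTiter Glo) after 96 h compound exposure, normalized to DMSO-treated cells as maximum. Compounds ran in duplicate, nine 3-fold steps from 30 μM down to 4.6 nM, final DMSO ≤0.25%; KP4 plated overnight at 1,000–10,000 cells/well. Outputs: IC50, relative IC50 or % top inhibition.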

[1] = Whole blood stability, human; assay type: in vitro ADME
From the text: (§1) The results of the assay on stability in blood and IC50 values for pancreatic cancer cell line KP4 are given below in Table 24.

[2] = Whole blood stability, mouse; assay type: in vitro ADME
From the text: as §1

MCF-10A = assay: Cell viability assay (CellTiter Glo), non-tumorigenic breast epithelial cell line MCF-10A; assay type: cell-based; details: Homo sapiens, 96 hours
Method: (§2) Cell viability assay was performed to assess the potency of the compounds in human cancer cell lines KP4 (pancreatic ductal adenocarcinoma), MiaPaCa-2 (pancreatic carcinoma), AsPC-1 (pancreatic adenocarcinoma, ascites), 143B (osteosarcoma), and SJSA-1 (osteosarcoma). Selected compounds were also assayed in a human breast epithelial cell line MCF-10A, a nontumorigenic cell line as a control to assess differential activity. Cells at a density of 500-5,000 cells/well were seeded in 96-well plates and incubated at 37° C. overnight. A series of 9 different concentrations of compound stocks (500×) were created by 3-fold serial dilution in DMSO. These compounds were further diluted in culture media and then added to cells so that the final DMSO concentration was equal to 0.25% or less. After 96 hours of incubation, 50 μL of CellTiter Glo reagent (Promega) was added to each well and luminescence was measured after 10 minutes using EnVision (PerkinElmer). Compounds titrated from top concentration of up to 30 μM. The select compounds were tested initially from 30 μM as the top concentration in duplicates (range of 4.6 nM-30 μM). […] Luminescence from cells treated with DMSO alone was set as Max and % of inhibition was calculated as follows: Inhibition %=(Max-Sample value)/Max*100. Data was analyzed using XL-fit software (ID Business Solutions Ltd.). IC50, relative IC50, or % of top inhibition was calculated.
Paclitaxel was used as the positive control for cytotoxicity.

AsPC-1 = assay: Cell viability assay (CellTiter Glo), pancreatic adenocarcinoma AsPC-1; assay type: cell-based; details: Homo sapiens, ASPC1; pancreatic adenocarcinoma, ascites, 96 hours, CellTiter Glo; read-out: IC50 AsPC-1
Method: as §2
(§3) The results of the assay in the pancreatic cell lines are given in Table 15a for PANC1, Table 15b for MiaPaCa-2, and Table 15c for AsPC-1.

MiaPaCa-2 = assay: Cell viability assay (CellTiter Glo), pancreatic carcinoma MiaPaCa-2; assay type: cell-based; details: Homo sapiens, MIA PaCa-2; pancreatic carcinoma, 96 hours, CellTiter Glo; read-out: IC50 MiaPaCa-2
Method: as §2, §3

143B = assay: Cell viability assay (CellTiter Glo), osteosarcoma 143B; assay type: cell-based; details: Homo sapiens, 96 h, osteosarcoma, 96 hours, CellTiter Glo, read-out: IC50 143B
Method: as §2
(§4) The results of the assay in sarcoma cell lines are given in Table 21a for HT-1080 luc2 (fibrosarcoma expressing a luciferase gene), Table 21b for 143B (osteosarcoma), and Table 21c for SJSA-1 (osteosarcoma).

SJSA-1 = assay: Cell viability assay (CellTiter Glo), osteosarcoma SJSA-1; assay type: cell-based; details: Homo sapiens, 96 hours
Method: as §2, §4

Row | Compound | pIC50 (MCF-10A) | pIC50 (AsPC-1) | pIC50 (MiaPaCa-2) | pIC50 (143B) | pIC50 (SJSA-1) | also measured
1 | [2H]C([2H])(Cl)C(=O)N1[C@@H](c2ccc(C(=O)OC(C)(C)C)cc2)c2[nH]c3ccccc3c2C[C@@H]1C(=O)OC [BZ] | 6.23 | 7.52 |  |  |  | IC50 (KP4): < 0.01 µM; Whole Blood Stability % Remaining at 37° C. Human ([1]; 0 min): 100.0%; Whole Blood Stability % Remaining at 37° C. Human ([1]; 30 min): 73.5%; Whole Blood Stability % Remaining at 37° C. Human ([1]; 60 min): 40.8%; Whole Blood Stability % Remaining at 37° C. Mouse ([2]; 0 min): 100.0%; Whole Blood Stability % Remaining at 37° C. Mouse ([2]; 30 min): 65.4%; Whole Blood Stability % Remaining at 37° C. Mouse ([2]; 60 min): 30.7%
2 | [2H]C([2H])([2H])OC(=O)[C@H]1Cc2c([nH]c3ccccc23)[C@H](c2ccc(C(=O)OC(C)(C)C)cc2)N1C(=O)CCl [CA] | 6.33 | 7.64 |  |  |  | IC50 (KP4): < 0.01 µM; Whole Blood Stability % Remaining at 37° C. Human ([1]; 0 min): 100.0%; Whole Blood Stability % Remaining at 37° C. Human ([1]; 30 min): 86.9%; Whole Blood Stability % Remaining at 37° C. Human ([1]; 60 min): 48.9%; Whole Blood Stability % Remaining at 37° C. Mouse ([2]; 0 min): 100.0%; Whole Blood Stability % Remaining at 37° C. Mouse ([2]; 30 min): 80.8%; Whole Blood Stability % Remaining at 37° C. Mouse ([2]; 60 min): 33.2%
3 | [2H]C([2H])([2H])OC(=O)[C@H]1Cc2c([nH]c3ccccc23)[C@H](c2ccc(C(=O)OC)cc2)N1C(=O)CCl [CC] | 5.77 | 6.93 |  |  |  | IC50 (KP4): < 0.01 µM; Whole Blood Stability % Remaining at 37° C. Human ([1]; 0 min): 100.0%; Whole Blood Stability % Remaining at 37° C. Human ([1]; 30 min): 63.8%; Whole Blood Stability % Remaining at 37° C. Human ([1]; 60 min): 33.5%; Whole Blood Stability % Remaining at 37° C. Mouse ([2]; 0 min): 100.0%; Whole Blood Stability % Remaining at 37° C. Mouse ([2]; 30 min): 0.0%; Whole Blood Stability % Remaining at 37° C. Mouse ([2]; 60 min): 0.0%
4 | COC(=O)[C@H]1Cc2c([nH]c3ccccc23)[C@H](c2ccc(C(=O)OCC34CC(F)(C3)C4)cc2)N1C(=O)CCl [Compound 76] | 5.95 | 7.46 |  |  |  | 
5 | COC(=O)c1ccc([C@H]2c3[nH]c4ccccc4c3C[C@H](C(=O)OC(C)(C)C)N2C(=O)CCl)cc1 [Example 2] |  |  | 7.22 | 6.82 | 6.63 | 
6 | COC(=O)[C@H]1Cc2c([nH]c3ccccc23)[C@H](c2ccc(C(=O)OC[C@]34C[C@H]5C[C@H](C[C@H](C5)C3)C4)cc2)N1C(=O)CCl [Example 6] | 5.42 |  | 7.26 | 7.06 | 6.84 | 
7 | CNC(=O)c1ccc([C@H]2c3[nH]c4ccccc4c3C[C@H](C(=O)OC)N2C(=O)CCl)cc1 [Example 7] |  |  | 6.92 | 6.56 | 6.16 | 
8 | COC(=O)[C@H]1Cc2c([nH]c3ccccc23)[C@H](c2ccc(C(=O)N(C)C)cc2)N1C(=O)CCl [Example 8] |  |  | 7.11 | 6.84 | 6.60 | 
9 | COC(=O)[C@H]1Cc2c([nH]c3ccccc23)[C@H](c2ccc(C(=O)NC(C)(C)C)cc2)N1C(=O)CCl [Example 9] | 5.64 |  | 7.92 | 7.49 | 7.16 | 
10 | COC(=O)[C@H]1Cc2c([nH]c3ccccc23)[C@H](c2ccc(C(=O)NC(C(=O)O)C(C)(C)C)cc2)N1C(=O)CCl (stereo partly drawn) [Example 10] | < 4.52 |  | 5.80 | 5.36 | 4.82 | 
11 | CC(C)(C)OC(=O)[C@H]1Cc2c([nH]c3ccccc23)[C@H](c2ccc([N+](=O)[O-])cc2)N1C(=O)CCl [Example 11] |  |  | 7.04 | 6.87 | 6.49 | 
12 | COC(=O)[C@H]1Cc2c([nH]c3ccccc23)[C@H](c2ccc(OC(C)=O)cc2)N1C(=O)CCl [Example 12] | 5.85 |  | 7.16 | 7.09 | 6.83 | 
13 | COC(=O)[C@H]1Cc2c([nH]c3ccccc23)[C@H](c2ccc(OC(=O)C(C)(C)C)cc2)N1C(=O)CCl [Example 13] | 5.52 |  | 6.88 | 6.96 | 6.80 | 
14 | COC(=O)[C@H]1Cc2c([nH]c3ccccc23)[C@H](c2ccc(C(=O)NCCNC(=O)OC(C)(C)C)cc2)N1C(=O)CCl [Example 16] | 5.71 |  | 7.62 | 6.98 | 6.70 | 
15 | CC(C)(C)OC(=O)c1ccc([C@H]2c3[nH]c4ccccc4c3C[C@H](C(=O)OC(C)(C)C)N2C(=O)CCl)cc1 [Example 19] | 6.37 |  | 7.20 | 7.00 | 6.67 | 
16 | CC(C)OC(=O)[C@H]1Cc2c([nH]c3ccccc23)[C@H](c2ccc(C(=O)OC(C)(C)C)cc2)N1C(=O)CCl [Example 20] | 6.09 |  | 7.43 | 7.12 | 6.83 | 
17 | CN(C)C(=O)[C@H]1Cc2c([nH]c3ccccc23)[C@H](c2ccc(C(=O)OC(C)(C)C)cc2)N1C(=O)CCl [Example 21] | 5.80 |  | 7.19 | 7.05 | 6.77 | 

Row | Compound | pIC50 (MCF-10A) | pIC50 (AsPC-1) | pIC50 (MiaPaCa-2) | pIC50 (143B) | pIC50 (SJSA-1) | also measured
18 | CNS(=O)(=O)c1ccc([C@H]2c3[nH]c4ccccc4c3C[C@H](C(=O)OC)N2C(=O)CCl)cc1 [Example 22] | 5.48 |  | 7.41 | 7.13 | 6.69 | 
19 | COC(=O)[C@H]1Cc2c([nH]c3ccccc23)[C@H](c2ccc(S(=O)(=O)N(C)C)cc2)N1C(=O)CCl [Example 23] | 5.62 |  | 7.44 | 7.47 | 7.05 | 
20 | COC(=O)[C@H]1Cc2c([nH]c3ccccc23)[C@H](c2ccc(C(=O)N3CCOCC3)cc2)N1C(=O)CCl [Example 26] | 5.40 |  | 7.28 |  | 6.47 | 
21 | COC(=O)[C@H]1Cc2c([nH]c3ccccc23)[C@H](c2ccc(C(=O)NCCN3CCOCC3)cc2)N1C(=O)CCl [Example 27] | 5.03 |  | 6.33 |  | 5.85 | 
22 | COC(=O)[C@H]1Cc2c([nH]c3ccccc23)[C@H](c2ccc(S(=O)(=O)N3CCC(O)CC3)cc2)N1C(=O)CCl [Example 35] | 5.38 |  | 6.93 |  | 6.50 | 
23 | COC(=O)[C@H]1Cc2c([nH]c3ccccc23)[C@H](c2ccc(S(=O)(=O)N3CC(O)C3)cc2)N1C(=O)CCl [Example 37] | 5.26 |  | 6.55 |  | 6.20 | 
24 | C=CCOC(=O)c1ccc([C@H]2c3[nH]c4ccccc4c3C[C@H](C(=O)OC)N2C(=O)CCl)cc1 [Example 74] | 5.18 | 6.97 |  |  |  | 
25 | COC(=O)[C@H]1Cc2c([nH]c3ccccc23)[C@H](c2ccc(C(=O)OCC3CC3)cc2)N1C(=O)CCl [Example 75] | 5.89 | 7.55 |  |  |  | 
26 | COC(=O)c1ccc([C@H]2c3[nH]c4ccccc4c3C[C@H](C)N2C(=O)CCl)cc1 [Example 77] | 6.05 | 7.13 |  |  |  | 
27 | COC(=O)[C@H]1Cc2c([nH]c3ccccc23)[C@H](c2ccc(C(=O)NCC3CC3)cc2)N1C(=O)CCl [Example 81] | 5.58 | 7.14 |  |  |  | 
28 | COC(=O)[C@H]1Cc2c([nH]c3ccccc23)[C@H](c2ccc(S(=O)(=O)NCC3CC3)cc2)N1C(=O)CCl [Example 82] | 5.43 | 7.21 |  |  |  | 
29 | COC(=O)[C@H]1Cc2c([nH]c3ccccc23)[C@H](c2ccc(C(=O)OCC3CCC3)cc2)N1C(=O)CCl [Example 85] | 6.30 | 7.54 |  |  |  | 
30 | COC(=O)[C@H]1Cc2c([nH]c3ccccc23)[C@H](c2ccc(C(=O)OCC3CCCC3)cc2)N1C(=O)CCl [Example 86] | 6.48 | 7.68 |  |  |  | 
31 | COC(=O)[C@H]1Cc2c([nH]c3ccc(Br)cc23)[C@H](c2ccc(C(=O)OCC3CC3)cc2)N1C(=O)CCl [Example 87] | 6.34 | 7.66 |  |  |  | 
32 | COC(=O)c1ccc([C@H]2c3[nH]c4ccc(Br)cc4c3C[C@H](C(=O)OC)N2C(=O)CCl)cc1 [Example 88] | 6.34 | 7.52 |  |  |  | 
33 | [2H]C([2H])(Cl)C(=O)N1[C@@H](c2ccc(C(=O)OC)cc2)c2[nH]c3ccccc3c2C[C@@H]1C(=O)OC [Example 90] | 5.83 | 6.88 |  |  |  | 
